Patent US10336701B2, “Pyridin-2-one derivatives of formula (II) useful as EP3 receptor antagonists” (Janssen Pharmaceutica NV, priority 2017, dated 2019)

Experiments:
[1] = biological target: T1, EP3 receptor (Homo sapiens, UniProt P43115); assay: [3H]-PGE2 binding assay (EP3 competition binding); conditions: read-out: [3H]-PGE2 Binding Ki
T1 construct: purchased Millipore HTS092M
T1 sequence (P43115 1-390): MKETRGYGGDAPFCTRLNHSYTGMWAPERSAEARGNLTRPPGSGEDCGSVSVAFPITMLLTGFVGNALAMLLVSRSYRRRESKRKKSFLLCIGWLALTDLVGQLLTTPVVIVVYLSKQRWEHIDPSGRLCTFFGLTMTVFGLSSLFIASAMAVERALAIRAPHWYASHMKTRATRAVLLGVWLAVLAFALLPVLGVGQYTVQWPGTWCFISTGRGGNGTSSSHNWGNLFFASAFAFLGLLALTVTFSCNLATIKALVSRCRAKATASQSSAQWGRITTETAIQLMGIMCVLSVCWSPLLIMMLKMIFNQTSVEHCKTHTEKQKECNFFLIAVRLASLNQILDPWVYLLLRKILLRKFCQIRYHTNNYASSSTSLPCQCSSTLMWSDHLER
How it was run: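 Scintillation-bead competition binding with EP3 membranes (2 μg/well), 2 nM [3H]-PGE2, 0.1% DMSO, in 50 mM Tris, 10 mM MgCl2, 1 mM EDTA, pH 7.4.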

[2] = biological target: T1, EP3 receptor; assay: CHO cell cAMP assay (forskolin and sulprostone stimulated, HTRF); format: cell-based; conditions: CHO cells; sulprostone 700 nM (EC80) and FSK 2 μM (EC70), 37° C. for 30 minutes; read-out: CHO_cAMP IC50

For `CC1(c2ccc(-c3ccc4ccccc4c3)[nH]c2=O)CNC(N)=N1` (stereo not drawn) [compound 287, 3-(2-amino-4-methyl-4,5-dihydro-1H-imidazol-4-yl)-6-(naphthalen-2-yl)pyridin-2(1H)-one], the Ki [1] was 157 nM and the IC50 [2] was 8680 nM.
In the case of `CC(C)C(CC(=O)NCCO)c1ccc(-c2ccc3cccc(F)c3c2)[nH]c1=O` (stereo not drawn) [compound 258, 3-(6-(8-fluoronaphthalen-2-yl)-2-oxo-1,2-dihydropyridin-3-yl)-N-(2-hydroxyethyl)-4-methyl pentanamide], the Ki [1] is reported as 8 nM and the IC50 [2] is reported as 136 nM.
Work on `O=C1NC(=O)C2(CCCC(c3ccc(-c4ccc5ccccc5c4)[nH]c3=O)C2)O1` (stereo not drawn) [compound 188, anti-7-(6-(naphthalen-2-yl)-2-oxo-1,2-dihydropyridin-3-yl)-1-oxa-3-azaspiro[4.5]decane-2,4-dione] yielded a Ki [1] of 15 nM and an IC50 [2] of 120 nM.
For `CCn1ncc2c(F)cc(-c3ccc(C(CC)(CC)c4nnn[nH]4)c(=O)[nH]3)cc21` [Compound #3, 3-(3-(1H-tetrazol-5-yl)pentan-3-yl)-6-(1-ethyl-4-fluoro-1H-indazol-6-yl)pyridin-2(1H)-one], the Ki [1] was 17 nM and the IC50 [2] was 349 nM.
Molecule `CC1(c2ccc(-c3ccc4ccccc4c3)[nH]c2=O)Cn2cnnc2N1` (stereo not drawn) [compound 167, 3-[6-methyl-5H,6H,7H-imidazo[2,1-c][1,2,4]triazol-6-yl]-6-(naphthalen-2-yl)-1,2-dihydropyridin-2-one] has a Ki [1] of 151 nM and an IC50 [2] of 779 nM.
With `CC(C)S(=O)(=O)N1CCC(c2ccc(-c3ccc4cc(F)ccc4c3)[nH]c2=O)CC1` [compound 199, 6-(6-fluoronaphthalen-2-yl)-3-(1-(isopropylsulfonyl)piperidin-4-yl)pyridin-2(1H)-one] the Ki [1] was greater than 10000 nM and the IC50 [2] was greater than 20000 nM.
Work on `CC(C)C(F)(C(=O)NS(=O)(=O)c1cc(F)cc(F)c1)c1ccc(-c2ccc3cccc(F)c3c2)[nH]c1=O` (stereo not drawn) [compound 173, N-((3,5-difluorophenyl)sulfonyl)-2-fluoro-2-(6-(8-fluoronaphthalen-2-yl)-2-oxo-1,2-dihydropyridin-3-yl)-3-methylbutanamide] yielded a Ki [1] of 153 nM and an IC50 [2] of 1300 nM.
`O=C1NC(=O)C(Cc2ccc(-c3ccc4cccc(F)c4c3)[nH]c2=O)O1` (stereo not drawn) [compound 252, 5-((6-(8-fluoronaphthalen-2-yl)-2-oxo-1,2-dihydropyridin-3-yl)methyl)oxazolidine-2,4-dione] was tested, and the Ki [1] was 180 nM and the IC50 [2] was 499 nM.
For `CCN1C(=O)COc2c(F)cc(-c3ccc(C(CN4CCS(=O)(=O)CC4)C(C)C)c(=O)[nH]3)cc21` (stereo not drawn) [Compound #128, 4-{2-[6-(4-ethyl-8-fluoro-3-oxo-2H-1,4-benzoxazin-6-yl)-2-oxo-1H-pyridin-3-yl]-3-methylbutyl},4-thiomorpholine-1,1-dione], the Ki [1] was 154 nM and the IC50 [2] was 18000 nM.
For `CC(C)C(/C=C1\OC(=O)NC1=O)c1ccc(-c2cc(F)c3cnn(C(C)C)c3c2)[nH]c1=O` (stereo not drawn) [compound 122, (Z)-5-(2-(6-(4-fluoro-1-isopropyl-1H-indazol-6-yl)-2-oxo-1,2-dihydropyridin-3-yl)-3-methylbutylidene)oxazolidine-2,4-dione], the Ki [1] was 32 nM and the IC50 [2] was 278 nM.
Molecule `CC(C)C1(c2ccc(-c3ccc4cccc(F)c4c3)[nH]c2=O)NC(=S)NC1=O` (stereo not drawn) [compound 294, 6-(8-fluoronaphthalen-2-yl)-3-(4-isopropyl-5-oxo-2-thioxoimidazolidin-4-yl)pyridin-2(1H)-one] has a Ki [1] of 6 nM and an IC50 [2] of 56 nM.
`CCn1ncc2c(F)cc(-c3ccc(C4CCCN(S(=O)(=O)C(C)C)C4)c(=O)[nH]3)cc21` (stereo not drawn) [compound 211, 6-(1-ethyl-4-fluoro-1H-indazol-6-yl)-3-(1-(isopropylsulfonyl)piperidin-3-yl)pyridin-2(1H)-one] showed a Ki [1] of 5 nM and an IC50 [2] of 37 nM.
With `CC(C)C(C(=O)NS(C)(=O)=O)c1ccc(-c2ccc3ccccc3c2)[nH]c1=O` (stereo not drawn) [compound 221, 3-methyl-N-(methylsulfonyl)-2-(6-(naphthalen-2-yl)-2-oxo-1,2-dihydropyridin-3-yl)butanamide] the Ki [1] was 51 nM and the IC50 [2] was 243 nM.
With `O=c1[nH]c(-c2ccc3ccccc3c2)ccc1C1CCNCC1` [compound 194, 6-(naphthalen-2-yl)-3-(piperidin-4-yl)pyridin-2(1H)-one] the Ki [1] was greater than 10000 nM and the IC50 [2] was greater than 20000 nM.
In the case of `CCn1ncc2c(F)cc(-c3ccc(C4CCN(C(=O)CO)CC4)c(=O)[nH]3)cc21` [compound 197, 6-(1-ethyl-4-fluoro-1H-indazol-6-yl)-3-(1-(2-hydroxyacetyl)piperidin-4-yl)pyridin-2(1H)-one], the Ki [1] is reported as 169 nM and the IC50 [2] is reported as 967 nM.
In the case of `CCn1cc2c(C)cc(-c3ccc(C(/C=C4\OC(=O)NC4=O)C(C)C)c(=O)[nH]3)cc2n1` (stereo not drawn) [compound 98, (Z)-5-(2-(6-(2-ethyl-4-methyl-2H-indazol-6-yl)-2-oxo-1,2-dihydropyridin-3-yl)-3-methylbutylidene)oxazolidine-2,4-dione], the Ki [1] is reported as greater than 10000 nM and the IC50 [2] is reported as greater than 20000 nM.
For `CCn1cc2c(C)cc(-c3ccc(C(CC4OC(=O)NC4=O)C(C)C)c(=O)[nH]3)cc2n1` (stereo not drawn) [compound 86, 5-(2-(6-(2-ethyl-4-methyl-2H-indazol-6-yl)-2-oxo-1,2-dihydropyridin-3-yl)-3-methylbutyl)oxazolidine-2,4-dione], the Ki [1] was 114 nM and the IC50 [2] was 916 nM.
`CCn1ncc2c(F)cc(-c3ccc(C(CC)(CC)c4ncco4)c(=O)[nH]3)cc21` [Compound #30, 6-(1-ethyl-4-fluoro-1H-indazol-6-yl)-3-(3-(oxazol-2-yl)pentan-3-yl)pyridin-2(1H)-one] showed a Ki [1] of 2 nM and an IC50 [2] of 12 nM.
For `CC(C)C(CC(=O)NS(C)(=O)=O)c1ccc(-c2ccc3ccccc3c2)[nH]c1=O` (stereo not drawn) [compound 250, 4-methyl-N-(methylsulfonyl)-3-(6-(naphthalen-2-yl)-2-oxo-1,2-dihydropyridin-3-yl)pentanamide], the Ki [1] was 69 nM and the IC50 [2] was 931 nM.
`CC(C)C(c1ccc(-c2ccc3cccc(F)c3c2)[nH]c1=O)n1ccnc1N` (stereo not drawn) [Compound #162, 3-(1-(2-amino-1H-imidazol-1-yl)-2-methylpropyl)-6-(8-fluoronaphthalen-2-yl)pyridin-2(1H)-one] showed a Ki [1] of 13 nM and an IC50 [2] of 117 nM.
For `CC(C)C(C(=O)NCCN(C)C)c1ccc(-c2ccc3cc(F)ccc3c2)[nH]c1=O` (stereo not drawn) [compound 242, N-(2-(dimethylamino)ethyl)-2-(6-(6-fluoronaphthalen-2-yl)-2-oxo-1,2-dihydropyridin-3-yl)-3-methylbutanamide], the Ki [1] was 398 nM and the IC50 [2] was 3960 nM.
In the case of `CC1(c2ccc(-c3ccc4ccccc4c3)[nH]c2=O)CNC(=S)N1` (stereo not drawn) [compound 286, 4-[2-hydroxy-6-(naphthalen-2-yl)pyridin-3-yl]-4-methylimidazolidine-2-thione], the Ki [1] is reported as 64 nM and the IC50 [2] is reported as 179 nM.
`CCn1ncc2c(F)cc(-c3ccc(C(CC)(CC)c4nnco4)c(=O)[nH]3)cc21` [Compound #42, 3-(3-(1,3,4-oxadiazol-2-yl)pentan-3-yl)-6-(1-ethyl-4-fluoro-1H-indazol-6-yl)pyridin-2(1H)-one] was tested, and the Ki [1] was 9 nM and the IC50 [2] was 20 nM.
`CCn1ncc2c(F)cc(-c3ccc(C(Cc4noc(=O)[nH]4)C(C)C)c(=O)[nH]3)cc21` (stereo not drawn) [Compound #99, 3-(2-(6-(1-ethyl-4-fluoro-1H-indazol-6-yl)-2-oxo-1,2-dihydropyridin-3-yl)-3-methylbutyl)-1,2,4-oxadiazol-5(4H)-one] gave a Ki [1] of 921 nM and an IC50 [2] of 4880 nM.
`CCn1ncc2c(F)cc(-c3ccc(C(CC)(CC)CC4OC(=O)NC4=O)c(=O)[nH]3)cc21` (stereo not drawn) [compound 56, 5-(2-ethyl-2-(6-(1-ethyl-4-fluoro-1H-indazol-6-yl)-2-oxo-1,2-dihydropyridin-3-yl)butyl)oxazolidine-2,4-dione] was tested, and the Ki [1] was 20 nM and the IC50 [2] was 230 nM.
`O=C1NC(=O)C2(CCC(c3ccc(-c4ccc5ccccc5c4)[nH]c3=O)CC2)N1` (stereo not drawn) [compound 203, 8-(6-(naphthalen-2-yl)-2-oxo-1,2-dihydropyridin-3-yl)-1,3-diazaspiro[4.5]decane-2,4-dione] was tested, and the Ki [1] was 106 nM and the IC50 [2] was 1410 nM.
Molecule `N#CC1(OC(N)=O)CCCC(c2ccc(-c3ccc4ccccc4c3)[nH]c2=O)C1` (stereo not drawn) [compound 185, 1-cyano-3-(6-(naphthalen-2-yl)-2-oxo-1,2-dihydropyridin-3-yl)cyclohexyl carbamate] has a Ki [1] of 31 nM and an IC50 [2] of 314 nM.
For `CC(C)C(CC(=O)Nc1ncc[nH]1)c1ccc(-c2ccc3cccc(F)c3c2)[nH]c1=O` (stereo not drawn) [compound 261, 3-(6-(8-fluoronaphthalen-2-yl)-2-oxo-1,2-dihydropyridin-3-yl)-N-(1H-imidazol-2-yl)-4-methylpentanamide], the Ki [1] was 20 nM and the IC50 [2] was 24 nM.
`CC(C)C1(c2ccc(-c3ccc4cccc(F)c4c3)[nH]c2=O)N=C(NC#N)NC1=O` (stereo not drawn) [compound 236, N-(4-(6-(8-fluoronaphthalen-2-yl)-2-oxo-1,2-dihydropyridin-3-yl)-4-isopropyl-5-oxo-4,5-dihydro-1H-imidazol-2-yl)cyanamide] was tested, and the Ki [1] was 2 nM and the IC50 [2] was 6 nM.
`CC(C)C(C)(C(N)=O)c1ccc(-c2ccc3ccccc3c2)[nH]c1=O` (stereo not drawn) [compound 232, 2,3-dimethyl-2-(6-(naphthalen-2-yl)-2-oxo-1,2-dihydropyridin-3-yl)butanamide] gave a Ki [1] of 125 nM and an IC50 [2] of 1630 nM.
